Data: patent US7238697B2, “Pyridylpyrimidines for use as pesticides” (Bayer CropScience AG, priority 2001, dated 2007)
Like-named read-outs stand apart in the source and are kept apart here.

What was measured:
[1] = log P determination by HPLC (reversed-phase C18), EEC Directive 79/831 Annex V.A8; assay type: physicochemical; conditions: pH 2.3
Description: The stated log P values were determined in accordance with EEC Directive 79/831 Annex V.A8 by HPLC (High Performance Liquid Chromatography) using a reversed-phase column, (C 18). Temperature: 43° C. Mobile phases for the determination in the acidic range: 0.1% aqueous phosphoric acid, acetonitrile; linear gradient from 10% acetonitrile to 90% acetonitrile. Calibration was carried out using unbranched alkan-2-ones (having 3 to 16 carbon atoms) with known logP values (determination of the logP values by the retention times using linear interpolation between two successive alkanones).

[2] = tested on: peach aphids (Myzus persicae); test: Myzus test (cabbage leaves dipped); assay type: in vivo; conditions: 144 h, after 6 d, solvent 30 parts DMF, emulsifier 1 part (Table D-1), read-out: Kill rate in % after 6 d
Description: To produce a suitable preparation of active compound, 1 part by weight of active compound is mixed with the stated amounts of solvent and emulsifier, and the concentrate is diluted with emulsifier-containing water to the desired concentration. Cabbage leaves (Brassica oleracea) which are heavily infested by peach aphids (Myzus persicae) are treated by being dipped into the preparation of the active compound of the desired concentration. After the desired period of time, the kill in % is determined. 100% means that all aphids have been killed; 0% means that none of the aphids has been killed.

[3] = reversed-phase C18 HPLC column, HPLC, reversed-phase C 18, 43° C., 0.1% aqueous phosphoric acid/acetonitrile, read-out: log P (pH 2.3)

| SMILES | chromatographic logP [1, 3] | other results |
| --- | --- | --- |
| NC(=O)OCCOC(=O)CSc1nccc(-c2ccccn2)n1 [Example 177] | – | chromatographic logP [1]: 1.41 |
| CC(C)(C)C1(COC(=O)CSc2nccc(-c3ccccn3)n2)COC1 [Example 211] | 2.75 | – |
| O=C(CSc1nccc(-c2ccccn2)n1)OC1CC(F)(F)C1(F)F (stereo not shown) [Example 221] | 3 | – |
| CCC1(COC(=O)CSc2nccc(-c3ccccn3)n2)COCOC1 [Example 222] | 2.51 | – |
| CC(=O)O[C@H]1CCC[C@H]1OC(=O)CSc1nccc(-c2ccccn2)n1 [Example 248] | 2.65 | – |
| O=C(CSc1nccc(-c2ccccn2)n1)OC1COC1 [Example 249] | 1.69 | – |
| CCOC(=O)CSc1nccc(-c2ccc(CC)cn2)n1 [Example 254] | 2.98 | – |
| CCOC(=O)CSc1nccc(-c2ccc(Cl)cn2)n1 [Example 256] | 3.23 | – |
| CCOC(=O)CSc1nccc(-c2ccc(C(F)(F)F)cn2)n1 [Example 257] | 3.48 | – |
| CCOC(=O)CSc1nccc(-c2cc(CC)ccn2)n1 [Example 259] | 2.69 | – |
| CCOC(=O)CSc1nccc(-c2cc(OC)ccn2)n1 [Example 261] | 1.62 | – |
| CCOC(=O)CSc1nccc(-c2cc(-c3ccccc3)ccn2)n1 [Example 262] | 3.54 | – |
| CCOC(=O)CSc1nccc(-c2ncccc2C)n1 [Example 265] | 1.85 | – |
| CCOC(=O)CSc1nccc(-c2ncccc2CC)n1 [Example 266] | 2.22 | – |
| CCOC(=O)CSc1nccc(-c2ncccc2OC)n1 [Example 268] | 1.34 | – |
| CCOC(=O)CSc1nccc(-c2ncccc2C(F)(F)F)n1 [Example 269] | 2.53 | – |
| CCOC(=O)CSc1ncc(C)c(-c2ccccn2)n1 [Example 271] | 2.18 | – |
| CCOC(=O)CSc1nccc(-c2ncccc2F)n1 [Example 281] | 2.04 | – |
| CCOC(=O)CSc1nccc(-c2ccc3ccccc3n2)n1 [Example 296] | 3.49 | – |
| CCOC(=O)CSc1nccc(-c2nccc3ccccc23)n1 [Example 298] | 2.51 | – |

| SMILES | chromatographic logP [1, 3] | other results |
| --- | --- | --- |
| c1ccc(-c2ccnc(SCc3nn[nH]n3)n2)nc1 [Example 299] | 1.17 | – |
| Cn1nnc(CSc2nccc(-c3ccccn3)n2)n1 [Example 300] | 1.59 | – |
| Cn1nnnc1CSc1nccc(-c2ccccn2)n1 [Example 301] | 1.24 | – |
| CC(C)(C)n1nnc(CSc2nccc(-c3ccccn3)n2)n1 [Example 302] | 2.69 | – |
| CCOC(=O)c1cc(NC(=O)NCCCOC(=O)CSc2nccc(-c3ccccn3)n2)ccc1Cl [Example 304] | 5.37 | – |
| CCOC(=O)CSc1nccc(-c2ccc(Br)cn2)n1 [Example 305] | 3.39 | – |
| CCOC(=O)CSc1nccc(-c2ccc([N+](=O)[O-])cn2)n1 [Example 306] | 2.77 | – |
| CCOC(=O)CSc1nccc(-c2cccc(Br)n2)n1 [Example 307] | 3.31 | – |
| O=C(CSc1nccc(-c2ccccn2)n1)Nc1cccc([N+](=O)[O-])c1 [Example 308] | 2.25 | – |
| COC(=O)c1ccc(NC(=O)CSc2nccc(-c3ccccn3)n2)cc1 [Example 309] | 2.16 | – |
| CC(C)(C)SC(=O)CSc1nccc(-c2ccccn2)n1 [Example 312] | 3.61 | – |
| Cc1c(NC(=O)CSc2nccc(-c3ccccn3)n2)cccc1[N+](=O)[O-] [Example 313] | 2.28 | – |
| CCOC(=O)CN(CC)c1nccc(-c2ccccn2)n1 [Example 315] | 2.13 | – |
| CCOC(=O)CSc1nccc(-c2cc(C(C)(C)C)ccn2)n1 [Example 316] | 3.55 | – |
| CCOC(=O)CSc1nccc(-c2ccc(SC)cn2)n1 [Example 317] | 1.68 | – |
| COC(=O)CSc1nccc(-c2ccccn2)n1 [drawing 415] | – | pest or weed control at 100 ppm ([2]; 100 ppm): 100% |
| CCOC(=O)CSc1nccc(-c2ccccn2)n1 [drawing 416] | – | pest or weed control at 1000 ppm [2]: 100% |
| CCCOC(=O)CSc1nccc(-c2ccccn2)n1 [drawing 417] | – | pest or weed control at 1000 ppm [2]: 95% |
| N#CCSc1nccc(-c2ccccn2)n1 [{[4-(2-pyridinyl)-2-pyrimidinyl]thio}acetonitrile] | 1.68 | – |

Now from value to compound, other results behind:

| chromatographic logP [1, 3] | SMILES | other results |
| --- | --- | --- |
| 1.64 | COCNC(=O)OCCOC(=O)CSc1nccc(-c2ccccn2)n1 [Example 175] | – |
| 1.93 | Cc1cnn(CCOC(=O)CSc2nccc(-c3ccccn3)n2)n1 [Example 176] | – |
| 2.2 | CN(C)C(=O)SCCOC(=O)CSc1nccc(-c2ccccn2)n1 [Example 178] | – |
| 2.29 | COC(C)(C)COC(=O)CSc1nccc(-c2ccccn2)n1 [Example 179] | – |
| 3.46 | CSCC(C)(C)COC(=O)CSc1nccc(-c2ccccn2)n1 [Example 186] | – |
| 1.97 | CC(=O)NCC(C)OC(=O)CSc1nccc(-c2ccccn2)n1 (stereo not shown) [Example 188] | – |
| 3.05 | COCC(C)(C)COC(=O)CSc1nccc(-c2ccccn2)n1 [Example 190] | – |
| 2.02 | CC(C)/C=N/CCOC(=O)CSc1nccc(-c2ccccn2)n1 [Example 191] | – |
| 1.63 | O=C(CSc1nccc(-c2ccccn2)n1)OCC1COC(=O)O1 (stereo not shown) [Example 192] | – |
| 2.46 | CC1(C)OCC(CCOC(=O)CSc2nccc(-c3ccccn3)n2)O1 (stereo not shown) [Example 193] | – |
| 2.95 | CC(C)OC(=O)C(C)OC(=O)CSc1nccc(-c2ccccn2)n1 (stereo not shown) [Example 194] | – |
| 2.66 | CC(C)(F)COC(=O)CSc1nccc(-c2ccccn2)n1 [Example 196] | – |
| 1.79 | Cc1scnc1CCOC(=O)CSc1nccc(-c2ccccn2)n1 [Example 197] | – |
| 2.2 | CCC1(COC(=O)CSc2nccc(-c3ccccn3)n2)CCO1 (stereo not shown) [Example 198] | – |
| 2.64 | CCOC(=O)C1CC1COC(=O)CSc1nccc(-c2ccccn2)n1 (stereo not shown) [Example 199] | – |
| 2.21 | COC(=O)CCCOC(=O)CSc1nccc(-c2ccccn2)n1 [Example 200] | – |
| 1.02 | Cn1ccnc1COC(=O)CSc1nccc(-c2ccccn2)n1 [Example 201] | – |
| 2.78 | CSC(C)COC(=O)CSc1nccc(-c2ccccn2)n1 (stereo not shown) [Example 203] | – |
| 1.2 | O=C(CSc1nccc(-c2ccccn2)n1)OCCc1ccncc1 [Example 204] | – |
| 3.81 | CC(C)(C)C(Cl)COC(=O)CSc1nccc(-c2ccccn2)n1 (stereo not shown) [Example 205] | – |
| 1.64 | O=C(CSc1nccc(-c2ccccn2)n1)OCC1CCC(=O)O1 (stereo not shown) [Example 206] | – |
| 2.61 | O=C(CSc1nccc(-c2ccccn2)n1)OCC#CCCl [Example 207] | – |
| 1.32 | O=C(CSc1nccc(-c2ccccn2)n1)OCCn1cncn1 [Example 209] | – |

| chromatographic logP [1, 3] | SMILES | other results |
| --- | --- | --- |
| 1.42 | O=C(CSc1nccc(-c2ccccn2)n1)OCCn1ccnn1 [Example 210] | – |
| 2.13 | CO/N=C/C(C)OC(=O)CSc1nccc(-c2ccccn2)n1 (stereo not shown) [Example 212] | – |
| 1.42 | CNC(=O)NCCCOC(=O)CSc1nccc(-c2ccccn2)n1 [Example 213] | – |
| 2.13 | C/C=N/OCCOC(=O)CSc1nccc(-c2ccccn2)n1 [Example 214] | – |
| 3.48 | CC(C=C(Cl)Cl)OC(=O)CSc1nccc(-c2ccccn2)n1 (stereo not shown) [Example 215] | – |
| 2.04 | CCC(=O)NCCCOC(=O)CSc1nccc(-c2ccccn2)n1 [Example 216] | – |
| 1.4 | CN(C=O)CCOC(=O)CSc1nccc(-c2ccccn2)n1 [Example 217] | – |
| 1.12 | CN1CCC(COC(=O)CSc2nccc(-c3ccccn3)n2)O1 (stereo not shown) [Example 220] | – |
| 2.49 | C=CC(=O)OCCCOC(=O)CSc1nccc(-c2ccccn2)n1 [Example 224] | – |
| 1.96 | COCN(C)C(=O)COC(=O)CSc1nccc(-c2ccccn2)n1 [Example 230] | – |
| 1.97 | CCNC(=O)COC(=O)CSc1nccc(-c2ccccn2)n1 [Example 231] | – |
| 1.97 | CON(C)C(=O)COC(=O)CSc1nccc(-c2ccccn2)n1 [Example 234] | – |
| 2.7 | O=C(CSc1nccc(-c2ccccn2)n1)OCCOCC(F)(F)F [Example 236] | – |
| 3.2 | CCOC(=O)C(OC(=O)CSc1nccc(-c2ccccn2)n1)C(C)C (stereo not shown) [Example 243] | – |
| 2.19 | CC(C)NC(=O)OCCOC(=O)CSc1nccc(-c2ccccn2)n1 [Example 245] | – |
| 2.54 | CC(=O)OC(C)C(C)OC(=O)CSc1nccc(-c2ccccn2)n1 (stereo not shown) [Example 246] | – |
| 1.97 | O=C(CSc1nccc(-c2ccccn2)n1)OCCc1noc(=O)[nH]1 [Example 250] | – |
| 2.25 | Cc1noc(C)c1CCOC(=O)CSc1nccc(-c2ccccn2)n1 [Example 252] | – |
| 3.19 | O=C(CSc1nccc(-c2ccccn2)n1)OCC(F)=C(Cl)Cl [Example 253] | – |
| 2.57 | CC1(CCCOC(=O)CSc2nccc(-c3ccccn3)n2)OCCO1 [Example 303] | – |
| 1.93 | CCOC(=O)C(C)N(C)C(=O)CSc1nccc(-c2ccccn2)n1 (stereo not shown) [Example 310] | – |
| 3.39 | CCOC(=O)/C=C(/CSc1nccc(-c2ccccn2)n1)OCC [Example 311] | – |
| 0.96 | NC(=O)CCSc1nccc(-c2ccccn2)n1 [Example 314] | – |
